In patent publication EP0399834B1, “1,2,4-Triazole derivatives, their preparation and their use for treating hypertension or respiratory tract disorders” (Beecham Group p.l.c., priority 1989, dated 1990):

System: Spontaneously hypertensive rats
Assay: Antihypertensive activity: systolic blood pressure by tail cuff method
Assay type: in vivo
Details: maximum at 1-4 hours post dose
Experimental: Systolic blood pressures were recorded by a modification of the tail cuff method described by I.M. Claxton, M.G. Palfreyman, R.H. Poyser, R.L. Whiting, European Journal of Pharmacology, 37, 179 (1976). A W+W BP recorder, model 8005 was used to display pulses. Prior to all measurements rats were placed in a heated environment (33.5 ± 0.5 °C) before transfer to a restraining cage. Each determination of blood pressure was the mean of at least 6 readings. Spontaneously hypertensive rats (ages 12-18 weeks) with systolic blood pressures >180 mmHg were considered hypertensive.

Cn1nc(N)nc1N[C@@H]1c2cc(C#N)ccc2OC(C)(C)[C@H]1O (relative stereo) [Example E1, N⁵-[trans-4-(6-Cyano-2,3-dihydro-2,2-dimethyl-2H-benzopyran-3-ol)]-1-methyl-1H-1,2,4-triazole-3,5-diamine]
% b.p. fall (Dose 0.1 mg/kg): 30%

Cn1ncnc1N[C@@H]1c2cc(C#N)ccc2OC(C)(C)[C@H]1O (relative stereo) [Example E2, trans-N⁵-4-[6-cyano-3,4-dihydro-2,2-dimethyl-2H-benzopyran-3-ol]amino-1-methyl-1H-1,2,4-triazole]
% b.p. fall (Dose 0.3 mg/kg): 22%

Cc1nc(N[C@@H]2c3cc(C#N)ccc3OC(C)(C)[C@H]2O)n(C)n1 (relative stereo) [Example E4, trans-N⁵-4-[6-Cyano-3,4-dihydro-2,2-dimethyl-2H-benzopyran-3-ol]amino-1,3-dimethyl-1H-1,2,4-triazole]
% b.p. fall (Dose 1.0 mg/kg): 22%

Cn1nc(N)nc1N[C@@H]1c2cc(C#N)ccc2OC(C)(C)[C@H]1O (relative stereo) [Example E7, (3S,4R)-N⁵-[trans-4-(6-cyano-3,4-dihydro-2,2-dimethyl-2H-1-benzopyran-3-ol)]-1-methyl-1H-1,2,4-triazole-3,5-diamine]
% b.p. fall (Dose 0.05 mg/kg): 45%
